In patent US4430327A, “Method for treating pregnant females for pain and anxiety” (Eli Lilly and Company, priority 1982, dated 1984):

Tests used:
[1] = Placental transport in pregnant rats: maternal and fetal serum levels after subcutaneous administration; format: in vivo; conditions: rat, 50 mg/kg subcutaneous
Procedure: In the assay using rats, 19 female rats on day 20 of their gestation period were administered 50 mg./kg. body weight metkephamid (acetate salt) subcutaneously. Sixty minutes after administration, the rats were decapitated, and their blood was collected in glass tubes. The fetuses were removed from the uterus, and the blood was collected either after decapitation or via heart puncture using glass capillary tubes.
(§1) In assaying for metkephamid, 1 ml. serum samples containing 6.72 mg. NaF and 8.0 mg. ethylenediamine tetraacetic acid (EDTA) were prepared and precipitated by addition of 2 ml. acetone. The resulting supernatants were saturated with NaCl and extracted with ethyl acetate. The extracts were dried and derivatized with Fluram® solution. The resulting solution was subjected to reverse phase high performance liquid chromatography and fluorescence detection.
For comparison, meperidine was administered to rats in the manner described for metkephamid. Meperidine content was assayed by adding 6.72 mg. NaF and 8.0 mg. EDTA to 1 ml. samples of serum. The samples were made alkaline with 0.1 ml. of 1.0 M NaOH and extracted with diethyl ether. The extracts were dried and dissolved in 0.3 ml. of ethyl acetate. An aliquot was injected into a gas chromatograph containing a 5 ft. glass column packed with 3% OV-1 on 100/120 mesh Gas Chrom Q. The oven temperature was 165° C., and the flame ionization detector temperature was 250° C.

[2] = Placental transport in pregnant ewes: maternal and fetal serum levels after intramuscular administration; format: in vivo; conditions: sheep
Procedure: In the assay using pregnant ewes, fetal jugular veins and carotid arteries were catheterized and externalized. Maternal femoral arteries were also catheterized. Upon stabilization of the animals, metkephamid (acetate salt) was given intramuscularly, and maternal (10 ml.) and fetal (7 ml.) arterial blood were taken at 0, 10, 20, and 45 minutes. In this assay, 5 ewes at various stages of pregnancy ranging from day 115 to day 145 of a 145-147 day gestation period were used.
as §1

CCOC(=O)C1(c2ccccc2)CCN(C)CC1 [Meperidine, meperidine, reference compound] gave a Fetal serum level ([1]; 45 min) of 2.02 ± 0.23 µg/mL and a Maternal serum level ([1]; 45 min) of 3.73 ± 0.89 µg/mL.

Compound CC(=O)O.CSCC[C@@H](C(N)=O)N(C)C(=O)[C@H](Cc1ccccc1)NC(=O)CNC(=O)[C@@H](C)NC(=O)[C@@H](N)Cc1ccc(O)cc1 [Metkephamid, L-tyrosyl-D-alanyl-glycyl-L-phenylalanyl-N^α -methyl-L-methionylamide acetate] has a level at 10 min ([2]; female, maternal serum, im, 5 mg/kg intramuscular, 10 min) of 9460 ± 3010 ng/mL, a level at 20 min ([2]; female, maternal serum, im, 5 mg/kg intramuscular, 20 min) of 9430 ± 2600 ng/mL and a level at 0.75 h ([2]; female, maternal serum, im, 5 mg/kg intramuscular, 45 min) of 8540 ± 2600 ng/mL. The fetal levels ([2]; 5 mg./kg., all measured times, limit of sensitivity about 50 ng./ml.) was “undetectable”, the Fetal serum level ([2]; 5 mg/kg intramuscular, 0 min) was 0.0 µg/mL and the Maternal serum level ([2]; 5 mg/kg intramuscular, 0 min) was 0.0 µg/mL. The Fetal serum level ([2]; 5 mg/kg intramuscular, 10 min) was 0.0 µg/mL, the Fetal serum level ([2]; 5 mg/kg intramuscular, 20 min) was 0.0 µg/mL and the Fetal serum level ([2]; 5 mg/kg intramuscular, 45 min) was 0.0 µg/mL. For the same compound, the Fetal serum level ([1]; 60 min) was 0.12 ± 0.04 µg/mL and the Maternal serum level ([1]; 60 min) was 7.17 ± 0.28 µg/mL.
